From article PMC3375280 (PLoS ONE, 2012)
Substitutions are numbered along the chain they refer to.

Columns and labels:
[1] = target: T1, wild-type (WT) AT1 receptor (Rattus norvegicus, UniProt P25095); set-up: expressed in transfected cells; host or cells: COS1 cells; conditions: previously reported; cited from earlier work
T1 sequence (P25095 1-359): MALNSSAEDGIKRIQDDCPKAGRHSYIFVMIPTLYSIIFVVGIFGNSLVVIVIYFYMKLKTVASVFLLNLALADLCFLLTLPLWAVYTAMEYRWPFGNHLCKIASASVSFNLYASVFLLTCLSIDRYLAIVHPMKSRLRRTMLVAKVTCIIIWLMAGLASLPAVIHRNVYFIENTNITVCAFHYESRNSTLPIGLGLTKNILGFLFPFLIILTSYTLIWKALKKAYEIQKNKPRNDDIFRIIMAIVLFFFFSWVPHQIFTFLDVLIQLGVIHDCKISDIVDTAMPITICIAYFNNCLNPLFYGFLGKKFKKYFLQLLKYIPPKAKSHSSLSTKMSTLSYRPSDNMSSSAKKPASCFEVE

[2] = target: T2, AT1 C76A/S109C/C289A mutant receptor (Rattus norvegicus, UniProt P25095, C289A/C76A/S109C); assay: substituted cysteine accessibility mapping (SCAM), C76A/S109C/C289A; type: binding; set-up: key: Less and More indicate that the AT1 receptor is less or more accessible to the ligand pocket, respectively; Less and More indicate that the AT1 receptor is less or more accessible to the ligand pocket, respectively; No change; conditions: 1 µM ARB, […] MTSEA+, COS1 membranes
T2 construct: expressed in transfected cells; host or cells: COS1
T2 sequence (P25095 1-359 C76A/S109C/C289A): T1 sequence (P25095 1-359) with C76A, S109C, C289A
Excerpt: As we reported previously, the percentage (%) inhibition of ^125I-[Sar^1, Ile^8] AngII binding by methanethiosulphonate ethyl-ammonium (MTSEA^+) reagent was approximately 30% on AT1 receptor, since Cys^76 in TM2 was accessible to water within the ligand pocket. In addition, mechanical stretching increased the accessibility of Cys^289 by inducing a change in the conformation of TM7 [22]. To differentiate between single and multiple movements of one or more native cysteines, we created TM3 residues that were substituted with cysteine one at a time from […] to Phe^117 using the C76A/C289A mutant genetic background and evaluated each triple mutant for MTSEA sensitivity.
Figure 3 Changes in cysteine accessibility in COS1 cells expressing C76A/C289A mutant receptors in which the transmenbrane 3 residues from Ala^106 to Phe^117, except for position 113, were successively replaced by cysteine. 1 µM of ARBs, n=4–9, *p<0.05 vs. no treatment. #p<0.05 vs. C76A/C289A.
The SCAM method has been used to probe relative changes in the conformation of constitutively active AT1 receptor [20]–[22] and other GPCRs, [30] by validating the presence of Cys residues within the ligand pocket. We used a highly reactive, sulfhydryl-specific reaction with methanethiosulfonyl ethyl-ammonium (MTSEA^+), which reacts a billion times faster with water-exposed and ionized Cys than with lipid-exposed and un-ionized Cys. In this reaction, a positively charged sulfonylmethylammonium group is added to a water-exposed Cys. Aliquots of cell membranes are incubated with or without ARBs for 20 min in phosphate buffer at room temperature. The membranes are then diluted with same buffer and centrifuged. After washout the cell membranes, the membranes are incubated with 2.5 mM MTSEA^+ at room temperature for 2 min in HEPES buffer (pH7.4). The Membranes are then diluted with same buffer to stop the reaction and centrifuged. One hundred µl aliquots were used to assay for ^125I-[Sar^1,Ile^8]Ang II binding. […]

Row | SMILES | Pharmacological behaviour toward IP production [1] | Cysteine accessibility at Ser109 compared to ligand (-) [2] | Cysteine accessibility at Ser109 compared to ligand (-) ([2]; listed as olmesartan)
1 | CCCc1nc(C(C)(C)O)c(C(N)=O)n1Cc1ccc(-c2ccccc2-c2nnn[nH]2)cc1 [R239470] | neutral antagonist | No change | –
2 | CCCc1nc(C(C)(C)O)c(C(=O)O)n1Cc1ccc(-c2ccccc2-c2nnn[nH]2)cc1 [Olmesartan, olmesartan, reference compound] | inverse agonism | Less | less accessibility
